Our source for the inhibition in vivo and ED50 values is ChEMBL document CHEMBL3244041, “Synthesis and structure-activity relationships of 5H,11 H-[I]benzopyrano[4,3-g]benzopyran-9-carboxylic acids” (1977).

Molecules are shown by their SMILES.

For assay [1], the system named is Rattus norvegicus. Briefly: Antiallergic activity in adrenalectomized Sprague-Dawley rat assessed as inhibition of ovalbumin-induced passive cutaneous anaphylaxis reaction at 1 mg/kg, iv after 12 days by Evans blue staining. It is filed as functional. Conditions: 288 h.
The test system of assay [2] is Rattus norvegicus. Briefly: Antiallergic activity in iv dosed adrenalectomized Sprague-Dawley rat assessed as inhibition of ovalbumin-induced passive cutaneous anaphylaxis reaction after 12 days by Evans blue staining. It is filed as functional. To be noted: 288 h.

Usually inhibition in vivo stands for the share of the control response that was lost under treatment. One may read the ED50 as the midpoint of the dose-response relation. As for `O=C([O-])c1cc(=O)c2cc3c(cc2o1)OCc1ccccc1-3.[Na+]`, the inhibition in vivo at 1 mg/kg in assay [1] came to 64.3%. Besides, the ED50 in assay [2] amounted to 0.3 mg/kg.
For `CC1(C)Oc2cc3oc(C(=O)O)cc(=O)c3cc2-c2ccccc21.NCCO`, in that order: 70.3% and 0.5 mg/kg.
Turning to `CCCCC1(CCCC)Oc2cc3oc(C(=O)O)cc(=O)c3cc2-c2ccccc21`, the inhibition in vivo at 1 mg/kg in assay [1] is 25%.
Same read-out and setting: the value for `CC1(C)Oc2cc3oc(C(=O)O)cc(=O)c3cc2-c2cc(Cl)ccc21` was 25%; that for `CC1(C)Oc2cc3oc(C(=O)O)cc(=O)c3cc2-c2ccc(Cl)cc21` was 60%.
As for `CC1(C)Oc2cc3oc(C(=O)O)cc(=O)c3cc2-c2ccc(F)cc21.NCCO`, the inhibition in vivo at 1 mg/kg in assay [1] was determined as 60%. Further, the ED50 in assay [2] worked out at 0.87 mg/kg.
For `CC1(C)Oc2cc3oc(C(=O)[O-])cc(=O)c3cc2-c2ccc(O)cc21.[Na+]`, in that order: 77.8% and 0.3 mg/kg.
Take `COc1ccc2c(c1)C(C)(C)Oc1cc3oc(C(=O)O)cc(=O)c3cc1-2`: the inhibition in vivo at 1 mg/kg in assay [1] is 66.7%.
Same read-out and setting: with `CCCOc1ccc2c(c1)C(C)(C)Oc1cc3oc(C(=O)O)cc(=O)c3cc1-2` the figure was 40%; with `CC(=O)Oc1ccc2c(c1)C(C)(C)Oc1cc3oc(C(=O)O)cc(=O)c3cc1-2`, 73.4%.
Regarding `COc1cc2c(cc1OC)C(C)(C)Oc1cc3oc(C(=O)O)cc(=O)c3cc1-2`, the inhibition in vivo at 1 mg/kg in assay [1] came to 67.7%.
Same read-out and setting: the value for `COc1cc2c(cc1Br)-c1cc3c(=O)cc(C(=O)O)oc3cc1OC2(C)C` was 0%; that for `CC1(C)Oc2cc3oc(C(=O)O)cc(=O)c3cc2-c2ccc([N+](=O)[O-])cc21` was 50%; that for `CC1(C)Oc2cc3oc(C(=O)O)cc(=O)c3cc2-c2ccc(S(=O)(=O)O)cc21` was 0%.
Turning to `CC1(C)Oc2cc3oc(C(=O)O)cc(=O)c3cc2-c2ccc(N)cc21`, in assay [1], the inhibition in vivo at 1 mg/kg was determined as 77.8%.
Same read-out and setting: the value for `COc1cccc2c1COc1cc3oc(C(=O)O)cc(=O)c3cc1-2` was 0%.
The same measure, in the same setting: the value for `CC1(C)Oc2c(cc3c(=O)cc(C(=O)O)oc3c2Cl)-c2ccccc21` was 66.7%.
On the same count and under the same terms, with `CC1(C)Oc2c(cc3c(=O)cc(C(=O)O)oc3c2[N+](=O)[O-])-c2ccccc21` the figure was 20%.
Take `COc1c2c(cc3c(=O)cc(C(=O)O)oc13)-c1ccccc1CO2`: in assay [1], the inhibition in vivo at 1 mg/kg stood at 50%.
For `O=C(O)c1cc(=O)c2cc3c(c(O)c2o1)OCc1ccccc1-3`, the inhibition in vivo at 1 mg/kg in assay [1] turned out to be 33.4%.
As for `CC1(C)Oc2c(cc3c(=O)cc(C(=O)O)oc3c2N)-c2ccccc21`, the inhibition in vivo at 1 mg/kg in assay [1] is 64.3%.
Regarding `Cc1c2c(cc3oc(C(=O)O)cc(=O)c13)OC(C)(C)c1ccccc1-2`, in assay [1], the inhibition in vivo at 1 mg/kg is 0%.
The same measure, in the same setting: with `CC1(C)Oc2cc3oc(C(=O)O)cc(=O)c3c(O)c2-c2ccccc21` the figure was 0%.
Regarding `NCCO.O=C(O)c1cc(=O)c2cc3c(oc(=O)c4ccccc43)c(O)c2o1`, in assay [1], the inhibition in vivo at 1 mg/kg was 55.6%. The ED50 in assay [2] was 2 mg/kg.
For `CC1(C)Oc2cc3oc(C(=O)O)cc(=O)c3cc2-c2ccc(OCCO)cc21.NCCO`, in that order: 82.8% and 0.11 mg/kg.
For `O=C([O-])c1cc(=O)c2c(OCC(O)COc3cccc4oc(C(=O)[O-])cc(=O)c34)cccc2o1.[Na+].[Na+]` [CROMOLYN SODIUM], in that order: 26.7% and 2.88 mg/kg.
